According to ChEMBL document CHEMBL1201862, “PubChem BioAssay data set” (2004):
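48-hour exposure; five concentrations; linearly interpolated endpoints. At the GI50, growth is halved.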 The source made the active and inactive calls. Rule as the data show it: active = GI50 up to about 1.1 µM and inactive = higher. Residues, ends and D or L forms follow the SMILES beside them. Peptide text beside a SMILES is read from it. * marks the point of attachment. *: point of attachment. Cbz = O=C(OCc1ccccc1)*; Boc = CC(C)(C)OC(=O)*; OBn = c1ccc(CO*)cc1

Legend:
Experiment in all cases: NCI anticancer screen, dose series, 48 h
LOX IMVI = tested on: LOX IMVI
TK-10 = tested on: TK-10
M14 = tested on: M14
IGROV-1 = tested on: IGROV-1
SNB-75 = tested on: SNB-75
UACC-257 = tested on: UACC-257
HCC 2998 = tested on: HCC 2998
SNB-19 = tested on: SNB-19
SK-OV-3 = tested on: SK-OV-3
SF-268 = tested on: SF-268
SK-MEL-28 = tested on: SK-MEL-28
NCI-H23 = tested on: NCI-H23
OVCAR-8 = tested on: OVCAR-8
SF-295 = tested on: SF-295
HOP-92 = tested on: HOP-92
EKVX = tested on: EKVX
SK-MEL-5 = tested on: SK-MEL-5
RXF 393 = tested on: RXF 393
NCI-H226 = tested on: NCI-H226

| SMILES | GI50 (LOX IMVI) | GI50 (TK-10) | GI50 (M14) | GI50 (IGROV-1) | GI50 (SNB-75) | GI50 (UACC-257) | GI50 (HCC 2998) | GI50 (SNB-19) | GI50 (SK-OV-3) | GI50 (SF-268) | GI50 (SK-MEL-28) | GI50 (NCI-H23) | GI50 (OVCAR-8) | GI50 (SF-295) | GI50 (HOP-92) | GI50 (EKVX) | GI50 (SK-MEL-5) | GI50 (RXF 393) | GI50 (NCI-H226) |
| --- | --- | --- | --- | --- | --- | --- | --- | --- | --- | --- | --- | --- | --- | --- | --- | --- | --- | --- | --- |
| Cc1cccc(N(C(=O)Nc2ccc(Cl)c(Cl)c2)C2=NCC(C)S2)c1 (stereo unspecified) | 18.3 µM (inactive) | 23.8 µM (inactive) | 0.55 µM (active) | 69.7 µM (inactive) | 54.3 µM (inactive) | 42.9 µM (inactive) | 36.8 µM (inactive) | > 100 µM (inactive) | > 100 µM (inactive) | 23.2 µM (inactive) | 38.6 µM (inactive) | 37.3 µM (inactive) | 60.4 µM (inactive) | 78.3 µM (inactive) | 38.6 µM (inactive) | 84.7 µM (inactive) | 17.5 µM (inactive) | – | – |
| Cc1ccccc1C1CC(=O)CC(c2ccccc2C)C12C(=O)NC(=S)NC2=O (stereo unspecified) | 17.2 µM (inactive) | 39.4 µM (inactive) | 24.3 µM (inactive) | – | 20.8 µM (inactive) | 22 µM (inactive) | 9.64 µM (inactive) | 43.4 µM (inactive) | 37.2 µM (inactive) | 32.7 µM (inactive) | 20.2 µM (inactive) | 35.2 µM (inactive) | – | 24.8 µM (inactive) | 26.1 µM (inactive) | 47.2 µM (inactive) | 17.2 µM (inactive) | 19.6 µM (inactive) | 20 µM (inactive) |
| C=CCC(CC=O)(C(=O)OCC)C(=O)OCC | > 100 µM (inactive) | > 100 µM (inactive) | > 100 µM (inactive) | > 100 µM (inactive) | > 100 µM (inactive) | > 100 µM (inactive) | – | > 100 µM (inactive) | > 100 µM (inactive) | > 100 µM (inactive) | > 100 µM (inactive) | > 100 µM (inactive) | > 100 µM (inactive) | > 100 µM (inactive) | > 100 µM (inactive) | > 100 µM (inactive) | > 100 µM (inactive) | > 100 µM (inactive) | > 100 µM (inactive) |
| C=C1C(=O)OC2(C)CCC1CC1OC1(C)CCC=C(C)CCC2O (stereo unspecified) | > 100 µM (inactive) | > 100 µM (inactive) | > 100 µM (inactive) | > 100 µM (inactive) | > 100 µM (inactive) | > 100 µM (inactive) | > 100 µM (inactive) | > 100 µM (inactive) | > 100 µM (inactive) | > 100 µM (inactive) | > 100 µM (inactive) | > 100 µM (inactive) | > 100 µM (inactive) | > 100 µM (inactive) | > 100 µM (inactive) | > 100 µM (inactive) | > 100 µM (inactive) | – | > 100 µM (inactive) |
| CCOC(=O)c1c(N2CCN(C)CC2)[nH]c(=O)c(C(c2c(Cl)cccc2Cl)c2c(O)c(C(=O)OCC)c(N3CCN(C)CC3)[nH]c2=O)c1O | 34.5 µM (inactive) | 30.5 µM (inactive) | 30 µM (inactive) | 20.7 µM (inactive) | – | 21.3 µM (inactive) | 36.8 µM (inactive) | 20.4 µM (inactive) | – | 24.2 µM (inactive) | 17.9 µM (inactive) | 40.3 µM (inactive) | 22 µM (inactive) | 28.1 µM (inactive) | 19.1 µM (inactive) | 14.5 µM (inactive) | 20.7 µM (inactive) | 18.2 µM (inactive) | 28.6 µM (inactive) |
| CNc1nc(SC)nc2c1c(N)nn2C | > 100 µM (inactive) | > 100 µM (inactive) | > 100 µM (inactive) | 78 µM (inactive) | 95.7 µM (inactive) | > 100 µM (inactive) | > 100 µM (inactive) | > 100 µM (inactive) | > 100 µM (inactive) | > 100 µM (inactive) | > 100 µM (inactive) | > 100 µM (inactive) | > 100 µM (inactive) | > 100 µM (inactive) | > 100 µM (inactive) | – | > 100 µM (inactive) | > 100 µM (inactive) | > 100 µM (inactive) |
| O=C(O)/C(=C/C(=O)c1ccc(Cl)cc1)NNc1ccc([N+](=O)[O-])cc1[N+](=O)[O-] | 75.3 µM (inactive) | 57.5 µM (inactive) | 42.1 µM (inactive) | 66.7 µM (inactive) | – | > 100 µM (inactive) | 59.8 µM (inactive) | 43.4 µM (inactive) | 35.6 µM (inactive) | 38.7 µM (inactive) | 43.5 µM (inactive) | 44.1 µM (inactive) | 29.5 µM (inactive) | 41.4 µM (inactive) | 22.9 µM (inactive) | > 100 µM (inactive) | > 100 µM (inactive) | – | 23.7 µM (inactive) |
| O=[N+]([O-])c1ccc(-n2nc3ccc4nonc4c3n2)cc1 | 42.4 µM (inactive) | 18.4 µM (inactive) | 52.1 µM (inactive) | 27.9 µM (inactive) | 11.1 µM (inactive) | > 100 µM (inactive) | 97.3 µM (inactive) | 25.4 µM (inactive) | 20 µM (inactive) | 34.3 µM (inactive) | 46.2 µM (inactive) | 23.7 µM (inactive) | – | 28 µM (inactive) | 19.6 µM (inactive) | 58.3 µM (inactive) | 31.2 µM (inactive) | – | 17.8 µM (inactive) |
| COc1cc2c(cc1OC)C13CC[N+]4(C)CC5=CCOC6CC(=O)N2C1C6C5CC34[O-] (stereo unspecified) | > 100 µM (inactive) | > 100 µM (inactive) | > 100 µM (inactive) | > 100 µM (inactive) | > 100 µM (inactive) | > 100 µM (inactive) | – | > 100 µM (inactive) | > 100 µM (inactive) | > 100 µM (inactive) | > 100 µM (inactive) | > 100 µM (inactive) | > 100 µM (inactive) | > 100 µM (inactive) | > 100 µM (inactive) | > 100 µM (inactive) | > 100 µM (inactive) | > 100 µM (inactive) | > 100 µM (inactive) |
| COc1ccc2c(c1)nc1n2C(c2c(Cl)cccc2Cl)SC1 (stereo unspecified) | 25.8 µM (inactive) | > 58.6 µM (inactive) | 12.4 µM (inactive) | 18.1 µM (inactive) | > 28.2 µM (inactive) | 37.8 µM (inactive) | 11.2 µM (inactive) | > 33.5 µM (inactive) | > 51.9 µM (inactive) | 20 µM (inactive) | 25.9 µM (inactive) | 38.4 µM (inactive) | > 61 µM (inactive) | 5.71 µM (inactive) | > 71.4 µM (inactive) | > 64.1 µM (inactive) | 5.02 µM (inactive) | – | > 21.8 µM (inactive) |
| CCOC1CCC2C(CCC(/C=C/c3ccc(O)c4ncccc34)N2C)C1 (stereo unspecified) | – | 33.2 µM (inactive) | 15.4 µM (inactive) | 11.4 µM (inactive) | – | – | 24.2 µM (inactive) | 16 µM (inactive) | – | 6.24 µM (inactive) | 29.6 µM (inactive) | 10.3 µM (inactive) | 3.53 µM (inactive) | 24 µM (inactive) | 11.7 µM (inactive) | 4.98 µM (inactive) | 19.7 µM (inactive) | – | 37.4 µM (inactive) |
| [N-]=[N+]=NC1=CC(=O)c2cccc3cccc1c23 | 17.3 µM (inactive) | 44.4 µM (inactive) | 18.4 µM (inactive) | 15.8 µM (inactive) | 13.5 µM (inactive) | 31.7 µM (inactive) | 38 µM (inactive) | 36.5 µM (inactive) | 15.3 µM (inactive) | 29.9 µM (inactive) | 33.3 µM (inactive) | 20.7 µM (inactive) | – | 24.9 µM (inactive) | 18.4 µM (inactive) | – | 12 µM (inactive) | 16.8 µM (inactive) | – |
| CC(C)C1=CC23CCC4C(C)(C(=O)O)CCCC4(C)C2CC1C1C(=O)N(c2ccc(N4C(=O)C5C6CC7C8(C)CCCC(C)(C(=O)O)C8CCC7(C=C6C(C)C)C5C4=O)cc2)C(=O)C13 (stereo unspecified) | – | 16.4 µM (inactive) | 4.16 µM (inactive) | – | – | – | 4.41 µM (inactive) | 4.75 µM (inactive) | – | 4.7 µM (inactive) | 4.49 µM (inactive) | 3.79 µM (inactive) | 4.89 µM (inactive) | – | 14.7 µM (inactive) | 4.09 µM (inactive) | 3.44 µM (inactive) | 11.7 µM (inactive) | 3.45 µM (inactive) |
| CC(C)(C)OC(=O)N(CCCN)CCCCN | – | > 100 µM (inactive) | > 100 µM (inactive) | > 100 µM (inactive) | – | > 100 µM (inactive) | > 100 µM (inactive) | > 100 µM (inactive) | > 100 µM (inactive) | > 100 µM (inactive) | > 100 µM (inactive) | > 100 µM (inactive) | > 100 µM (inactive) | > 100 µM (inactive) | > 100 µM (inactive) | > 100 µM (inactive) | > 100 µM (inactive) | > 100 µM (inactive) | > 100 µM (inactive) |
| CC(C)CC(NC(=O)OC(C)(C)C)C(=O)NC(CC(=O)OCc1ccccc1)C(N)=O (stereo not drawn) (Boc-Leu-Asp(OBn)-NH2; configuration not given here) | > 100 µM (inactive) | > 100 µM (inactive) | > 100 µM (inactive) | > 100 µM (inactive) | 17.3 µM (inactive) | > 100 µM (inactive) | – | > 100 µM (inactive) | > 100 µM (inactive) | > 100 µM (inactive) | > 100 µM (inactive) | > 100 µM (inactive) | > 100 µM (inactive) | > 100 µM (inactive) | > 100 µM (inactive) | > 100 µM (inactive) | > 100 µM (inactive) | > 100 µM (inactive) | > 100 µM (inactive) |
| CCOC(=O)CCC(NC(=O)OCc1ccccc1)C(=O)NC(CCC(=O)OCC)C(=O)OCC (stereo unspecified) (Cbz-Glu(OEt)-Glu(OEt)-OEt; configuration not given here) | > 100 µM (inactive) | – | > 100 µM (inactive) | > 100 µM (inactive) | > 100 µM (inactive) | > 100 µM (inactive) | > 100 µM (inactive) | > 100 µM (inactive) | > 100 µM (inactive) | > 100 µM (inactive) | > 100 µM (inactive) | > 100 µM (inactive) | > 100 µM (inactive) | > 100 µM (inactive) | > 100 µM (inactive) | > 100 µM (inactive) | > 100 µM (inactive) | > 100 µM (inactive) | > 100 µM (inactive) |
